Results published in patent publication US20160214996A1, “MACROCYCLIC COMPOUNDS FOR THE TREATMENT OF PROLIFERATIVE DISEASES” (CS Pharmasciences, Inc., priority 2013, published 2016).

Assays:
ALK wild type = molecular target: T1, ALK wild type (Homo sapiens, UniProt Q9UM73); test: ALK wild type standard HTRF enzyme assay; assay type: biochemical; details: 0.5 nM ALK wild type, 30 μM ATP, 90 minutes at room temperature, read-out: IC50 (nM) ALK_wt
T1 construct: purchased Carna Biosciences (Japan)
Method: (§1) Wild type ALK and L1196M mutant ALK enzyme inhibition by the compounds of formula (I) was measured using an HTRF assay.
(§2) ALK wild type and ALK L1196M were acquired from Carna Biosciences (Japan). A standard HTRF kit (containing Eu-labeled TK1 antibody, XL665, biotin conjugated TK1 peptide, 5× enzymatic buffer and 1×HTRF detection buffer) were purchased from Cis-Bio International. Plates were read on an Envision multi-label plate reader (Perkin Elmer).
(§3) In both assays, the compounds were tested in 11 doses in duplicate with 3-fold dilution as the final concentrations were from 10 μM to 0.17 nM. Compound 13a was tested with lower top concentrations of 1 μM due to high potency.
The enzyme reaction mixture of ALK wild type standard HTRF assay contained 0.5 nM ALK wild type, 1 μM biotin-TK1 peptide, 30 μM ATP and 50 nM SEB in 1× enzymatic reaction buffer containing 50 mM (pH 7.0) HEPES, 5 mM MgCl2, 0.02% NaN3, 0.01% BSA, 0.1 mM Orthovanadate and 1 mM DTT at a final volume of 10 μl. The enzyme reaction was carried out at room temperature in white Proxiplate 384-Plus plate (PerkinElmer) for 90 minutes.
(§4) The detection reagents ([…]) were added at final concentrations of 2 nM antibody and 62.5 nM XL665. The plates were incubated at room temperature for 60 minutes and then read in the Envision plate reader.
(§5) The readouts were transformed into inhibition rate % by the equation of (Ratio-Min)/(Max-Min)*100%.

ALK L1196M = molecular target: T2, ALK L1196M (Homo sapiens, UniProt Q9UM73, L1196M); test: ALK L1196M standard HTRF enzyme assay; assay type: biochemical; details: 0.15 nM ALK L1196M, 30 μM ATP, 60 minutes at room temperature, read-out: IC50 (nM) ALK_L1196M
T2 construct: purchased Carna Biosciences (Japan)
T2 sequence (Q9UM73 19-1620 L1196M): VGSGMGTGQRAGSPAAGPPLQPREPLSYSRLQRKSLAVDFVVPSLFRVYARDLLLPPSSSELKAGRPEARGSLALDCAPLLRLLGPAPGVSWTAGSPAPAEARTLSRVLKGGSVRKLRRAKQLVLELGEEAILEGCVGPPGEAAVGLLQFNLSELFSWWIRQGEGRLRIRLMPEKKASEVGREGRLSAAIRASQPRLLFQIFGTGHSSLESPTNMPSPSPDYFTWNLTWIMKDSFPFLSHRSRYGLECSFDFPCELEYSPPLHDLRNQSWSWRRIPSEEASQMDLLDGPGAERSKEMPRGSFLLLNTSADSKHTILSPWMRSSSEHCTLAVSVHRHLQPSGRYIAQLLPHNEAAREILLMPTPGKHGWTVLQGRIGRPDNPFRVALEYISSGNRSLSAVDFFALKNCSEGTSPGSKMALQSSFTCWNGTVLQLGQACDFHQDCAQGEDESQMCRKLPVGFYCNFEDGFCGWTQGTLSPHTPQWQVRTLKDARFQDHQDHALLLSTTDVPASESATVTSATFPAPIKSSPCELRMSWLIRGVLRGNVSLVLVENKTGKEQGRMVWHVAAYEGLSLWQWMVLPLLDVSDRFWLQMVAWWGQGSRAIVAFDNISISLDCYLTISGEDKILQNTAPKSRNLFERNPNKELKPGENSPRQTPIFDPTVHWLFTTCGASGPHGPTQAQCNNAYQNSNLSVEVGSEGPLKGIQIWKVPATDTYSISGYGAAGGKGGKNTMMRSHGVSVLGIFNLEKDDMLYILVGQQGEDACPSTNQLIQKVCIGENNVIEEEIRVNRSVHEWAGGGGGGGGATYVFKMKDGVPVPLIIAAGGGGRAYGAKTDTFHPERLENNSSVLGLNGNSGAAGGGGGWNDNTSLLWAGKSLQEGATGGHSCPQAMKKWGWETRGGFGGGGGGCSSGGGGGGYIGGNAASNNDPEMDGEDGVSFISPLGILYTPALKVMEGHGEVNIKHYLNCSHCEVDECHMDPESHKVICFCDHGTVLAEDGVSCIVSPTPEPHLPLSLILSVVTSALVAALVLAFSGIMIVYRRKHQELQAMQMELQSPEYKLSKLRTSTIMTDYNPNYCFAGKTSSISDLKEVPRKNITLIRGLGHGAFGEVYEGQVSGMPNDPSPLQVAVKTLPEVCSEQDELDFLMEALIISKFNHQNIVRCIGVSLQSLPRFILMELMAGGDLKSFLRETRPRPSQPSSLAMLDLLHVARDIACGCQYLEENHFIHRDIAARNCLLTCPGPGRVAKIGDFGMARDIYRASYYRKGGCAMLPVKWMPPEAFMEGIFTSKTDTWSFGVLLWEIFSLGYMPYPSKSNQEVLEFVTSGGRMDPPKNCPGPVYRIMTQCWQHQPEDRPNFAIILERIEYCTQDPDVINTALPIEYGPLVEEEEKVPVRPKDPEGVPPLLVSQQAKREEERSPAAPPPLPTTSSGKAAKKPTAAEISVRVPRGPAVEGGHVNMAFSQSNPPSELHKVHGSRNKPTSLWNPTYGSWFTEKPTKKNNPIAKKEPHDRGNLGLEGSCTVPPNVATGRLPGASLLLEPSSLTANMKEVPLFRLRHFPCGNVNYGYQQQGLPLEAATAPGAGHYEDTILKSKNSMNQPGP
Method: as §1, §2, §3
[…]. The enzyme reaction was carried out at room temperature in white Proxiplate 384-Plus plate (PerkinElmer) for 60 minutes.
as §4, §5

T1 sequence (Q9UM73 19-1620): as the sequence (Q9UM73 19-1620 L1196M) above, with M1178L counted along it

IC50 (ALK wild type) [nM]	IC50 (ALK L1196M) [nM]	Compound
2370		CC1Oc2cc(cnc2N)-c2c(nn(C)c2C#N)NC(=O)COc2ccc(F)cc21 (stereo not shown) [Compound 15]
34.8	529	CC1Oc2cc(cnc2N)-c2c(nn(C)c2C#N)N(C)C(=O)COc2ccc(F)cc21 (single isomer, unassigned) [Compound 16]
7430		CC1Oc2cc(cnc2N)-c2c(nn(C)c2C#N)N(C)C(=O)COc2ccc(F)cc21 (single isomer, unassigned) [Compound 17]
